Results published in patent US6514964B1, “Fused cycloheptane and fused azacycloheptane compounds and their methods of use” (Amgen Inc., priority 1999, dated 2003).
pIC50: −log10 of the molar value. Structures can show the parent of a compound that is named as a salt.

System: human umbilical cord endothelial cells (HUVEC)
Test: HUVEC proliferation assay and/or HUVEC adhesion assay
Format: cell-based
Settings: bound stated for the listed compounds
Procedure: HUVEC Proliferation Assay
1. Coat 3 NUNC polystyrene 96 well plate (VWR, 62409-120; lids 62409-118) with vitronectin (purified internally), fibronectin (Collaborative Biomed 40008A) or fibrinogen (Calbiochem 341578) 50 ng/well in 50 μl PBS, 1 hr @ RT.
a. rinse with 5 mls PBS (no Ca, Mg)
3. Rinse vitronectin plates 1× in 200 μl PBS −/− and add 3000 cells per well in 100 ul growth medium (EBM2 (Clonetics, CC-3156)+EGM2 bullet kit (CC-4176)).
4. Incubate 24 hours at 37° C. to allow attachment.
5. Remove growth medium and add 100 μl growth medium+drugs (25 μM and down by five fold steps in DMSO-0.25% final DMSO concentration).
6. Incubate for 3 days changing media (+drugs).
7. Remove non-adherent cells on Friday with Raindance 12 well plate washer.
8. Wash twice with 200 μl PBS (+Mg & Ca).
9. Tap out excess liquid.
10. Freeze @ −70° C. for 30 minutes.
11. Thaw plate and add 150 μl CyQuant fluorescent dye (Molecular Probes C-7026).
12. Read after 4 minutes @ 485λ (excitation), 530λ (emission).
1. Coat 2 NUNC polystyrene 96 well plates (VWR, 62409-120; lids 62409-118) with 50 μl vitronectin (purified internally) at 50 ng/well in PBS (−Mg & Ca), for 1 hour @ 37° C.
2. Rinse with PBS & block with 150 μl PBS/1% BSA (Sigma A8918), 1 hour at @ 37° C.
3. Prepare drug dilutions:
a. 400 fold concentrate in 100% DMSO
b. 0.25% DMSO [assay]final
c. 10 mM & down (25 μMfinal & down)
d. dilute 1 μl of 400 fold conc into 200 μl adhesion media
a. rinse with 5 ml PBS (no Ca, Mg)
6. Rinse blocking buffer from assay plate and add 50 μl of drug dilutions.
7. Resuspend cells in adhesion media, count and add 2e4 cells/well in 50 μl (4e5/ml).
8. Incubate 60 minutes @ 37° C.
9. Remove non-adherent cells with Raindance 12 well plate washer.
10. Wash twice with 200 μl PBS (+Mg & Ca)
11. Tap out excess liquid.
12. Freeze @ −70° C. for 30 minutes to overnite.
13. Thaw plate and add 150 μl CyQuant fluorescent dye (Molecular Probes C-7026).
14. Read after 2-5 minutes @ 485λ (excitation), 530λ (emission).
Adhesion medium: Media 199 (which contains […] and 0.8 mM MgSO4), 0.5% BSA, 10 mM HEPES, 1 mM MgCl2, and 1 mM MnCl2

| Structure (SMILES) | pIC50 |
| --- | --- |
| O=C(O)CC1CCN(C(=O)CNCCNc2ccccn2)Cc2ccccc21 (stereo not drawn) [Example 16, 2-(2-(2-((2-(2-pyridylamino)ethyl)amino)acetyl)-1H,3H,4H,5H-benzo[e]azain-5-yl)acetic acid] | ≥ 4.52 |
| O=C(O)CC1CCN(C(=O)NCCCc2ccc3c(n2)NCCC3)Cc2cc(F)ccc21 (stereo not drawn) [Example 24, 2-(8-fluoro-2-(N-(3-(1,2,3,4-tetrahydropyridino [2,3,b]pyridin-7-yl)propyl)carbamoyl)-1H,3H,4H,5H-benzo[e]azaperhydroepin-5-yl)acetic acid] | ≥ 4.52 |
| O=C(O)CC1CN(C(=O)NCCCc2ccc3c(n2)NCCC3)CCc2ccccc21 (stereo not drawn) [Example 30, 2-{3-(N-(3-(1,2,3,4-tetrahydropyridino[2,3-b]pyridin-7-yl)propyl)carbamoyl)-1H,2H,4H,5H-benzo[d]azepin-1-yl}acetic acid] | ≥ 4.52 |
| O=C(O)CC1CCN(C(=O)NCCCc2ccc3c(n2)NCCC3)Cc2cc(OCc3ccccc3)ccc21 (stereo not drawn) [Example 72] | ≥ 4.52 |
| O=C(O)CC1CC(=O)N(CC(=O)NCCCNc2ccccn2)Cc2ccccc21 (stereo not drawn) [Example 25, 2-(2-({N-(4-(2-pyridylamino)prop-1-yl)carbamoyl}methyl)-3-oxo-1H,4H,5H-benzo(e)azepin-5-yl) acetic acid] | ≥ 4.52 |
| O=C(O)CC1CN(CC(=O)NCCCc2ccc3c(n2)NCCC3)CCc2ccccc21 (stereo not drawn) [Example 28, 2-(3-{[N-(3-(1,2,3,4-tetrahydropyridino[2,3-b]pyridin-7-yl)propyl)carbamoyl]methyl}-1H,2H,4H,5H-benzo[d]azepinyl)acetic acid] | ≥ 4.52 |
| O=C(O)CC1CCN(C(=O)NCCCCNC(=O)NCc2ccccc2)Cc2ccccc21 (stereo not drawn) [2-{2-[N-(4-{[benzylamino]carbonylamino}butyl)carbamoyl]-1H, 3H, 4H, 5H-benzo[e]azepin-5-yl}acetic acid] | ≥ 4.52 |
| O=C(O)C[C@@H]1CCN(C(=O)CCCc2ccc3c(n2)NCCC3)Cc2ccccc21 [Example 55] | ≥ 4.52 |
| O=C(O)CC1CN(CC(=O)NCCCCNc2ccccn2)CCc2ccccc21 (stereo not drawn) [Example 27, 2-(3-({N-(4-(2-pyridylamino)but-1-yl)carbamoyl}methyl)-1H,2H,4H,5H-benzo[d]azepin-1-yl) acetic acid] | ≥ 4.52 |
| CC(C)(C)OC(=O)Nc1cccc(CCCNC(=O)N2CCC(CC(=O)O)c3ccccc3C2)n1 (stereo not drawn) [Example 12, 2-(2-(N-(3-(6-(tert-butoxycarbonylamino)-2-pyridyl)proyl)carbamoyl)-1H,3H,4H,5H-benzo[e]azapin-5-yl)acetic acid] | ≥ 4.52 |
| O=C(O)CC1CCN(C(=O)N2CCC(CNc3ccccn3)CC2)Cc2ccccc21 (stereo not drawn) [Example 7, 2-(2-(((4-(2-pyridylamino)methyl)piperid-1-yl)carbonyl)-1H,3H,4H,5H-benzo[e]azapin-5-yl)acetic acid] | ≥ 4.52 |
| O=C(O)CC1Cn2cc(C(=O)NCCc3ccc4c(n3)NCCC4)nc2Cc2ccccc21 (stereo not drawn) [Example 63, 2-{2-[N-(2-(1,2,3,4-tetrahydropyridino [2,3-b]pyridin-7-yl)ethyl)carbamoyl]-4H,5H,10H-benzo[d]imidazolo[1,2-a]azepin-5-yl}acetic acid] | ≥ 4.52 |
| Nc1cccc(CCCNC(=O)N2CCC(CC(=O)O)c3ccccc3C2)n1 (stereo not drawn) [Example 11, 2-(2-(N-(3-(6-amino-2-pyridyl)prop-1-yl)carbamoyl)-1H,3H,4H,5H-benzo[e]azapin-5-yl)acetic acid Hydrochloride] | ≥ 4.52 |
| O=C(O)CC1CN(C(=O)NCCCCCNc2ccccn2)CCc2ccccc21 (stereo not drawn) [Example 29, 2-(3-{N-(5-(2-pyridylamino)pent-1-yl)carbamoyl}-1H,2H,4H,5H-benzo[d]azepinyl)acetic acid] | ≥ 4.52 |
| CC(C)N(Cc1cnc2c(c1)CCCN2)C(=O)c1cn2c(n1)Cc1ccccc1C(CC(=O)O)C2 (stereo not drawn) [Example 65, 2-{2-[N-(methylethyl)-N-(1,2,3,4tetrahydropyridino[2,3-b]pyridine-6-ylmethyl)carbamoyl]-4H,5H,10H-benzo[d]imidazolo[1,2-a]azepin-5-yl}acetic acid] | ≥ 4.52 |
| O=C(O)CC1CCN(C(=O)CCCc2ccc3c(n2)NCCC3)Cc2ccccc21 (stereo not drawn) [Example 56, 2-[2-(4-(1,2,3,4-tetrahydropyridino[2,3-b]pyridin-7-yl)butanoyl)-1H,3H,4H,5H-benzo[e]azepin-5-yl]acetic acid] | ≥ 4.52 |
| O=C(O)C[C@H]1CCN(C(=O)NCCc2ccc3c(n2)NCCC3)Cc2ccccc21 [Example 53, 2-((5R)-2-(N-(3-(1,2,3,4-tetrahydropyridino(2,3-b)pyridin-7-yl)ethyl)carbamoyl)-1H,3H,4H,5H-benzo[e]azapin-5-yl)acetic acid] | ≥ 4.52 |
| O=CNc1ccc2c(c1)CN(C(=O)NCCCc1ccc3c(n1)NCCC3)CCC2CC(=O)O (stereo not drawn) [Example 83, 2-{8-Carbonylamino-2-[N-(3-(1,2,3,4-tetrahydropyridino[2,3-b]pyridin-7-yl)propyl)carbamoyl]-1H,3H,4H,5H-benzo[e]azepin-5-yl}acetic acid] | ≥ 4.52 |
| O=C(O)CC1CN(C(=O)NCCc2ccc3c(n2)NCCC3)CCc2ccccc21 (stereo not drawn) [2-(3-(N-(2-(1,2,3,4-tetrahydropyridino[2,3-b]pyridin-7-yl)ethyl)carbamoyl)-1H, 2H, 4H, 5H-benzo[d]azepin-1-yl}acetic acid] | ≥ 4.52 |
| N#C/N=C(\NCCCc1ccc2c(n1)NCCC2)N1CCC(CC(=O)O)c2ccccc2C1 (stereo not drawn) [Example 42] | ≥ 4.52 |
| O=C(O)CC1CN(C(=O)CCCCCCNc2ccccn2)CCc2ccccc21 (stereo not drawn) [Example 32, 2-{3-(7-(2-pyridylamino)heptanoyl)-1H,2H,4H,5H-benzo[d]azepin-1-yl}acetic acid] | ≥ 4.52 |
| O=C(O)CC1CCN(C(=O)NCCCc2ccc3c(n2)NCCC3)Cc2cc(Br)c(Br)cc21 (stereo not drawn) [Example 80, 2-{7,8-Dibromo-2-[N-(3-(1,2,3,4-tetrahydropyridino[2,3-b]pyridin-7-yl)propyl)carbamoyl]-1H,3H,4H,5 H-benzo[e]azepin-5-yl}acetic acid] | ≥ 4.52 |
| O=C(O)CC1CCN(C(=O)NCCCc2ccc3c(n2)NCCC3)Cc2cc(-c3ccccc3)ccc21 (stereo not drawn) [Example 73, 2-(8-phenyl-2-(N-(3-(1,2,3,4-tetrahydropyridino[2,3,b]pyridin-7-yl)propyl)carbamoyl)-1H,3H,4H,5H-benzo[e]azaperhydroepin-5-yl) acetic acid] | ≥ 4.52 |
| O=C(O)CC1CCN(C(=O)NCCCCNc2ccccn2)Cc2ccccc21 (stereo not drawn) [Example 3, 2-(2-(N-(4-(2-pyridylamino)butyl)carbamoyl)-1H,3H,4H,5H-benzo[e]azapin-5-yl)acetic acid] | ≥ 4.52 |
| O=C(O)CC1CCN(C(=O)NCCCCNC2=NCCN2)Cc2ccccc21 (stereo not drawn) [Example 75, 2-(2-(N-(4-(4,5-dihydroimidazo-2-yl)aminobut-1-yl)carbamoyl)-1H,3H,4H-5H-benzo[e]azapin-5-yl)acetic acid] | ≥ 4.52 |
| CC(C)N(CCc1ccc2c(n1)NCCC2)C(=O)c1cn2c(n1)Cc1ccccc1C(CC(=O)O)C2 (stereo not drawn) [Example 64, 2-{2-[N-(methylethyl)-N-(2-(1,2,3,4-tetrahydropyridino[2,3-b]pyridin-7-yl)ethyl)carbamoyl]-4H,5H,10H-benzo[d]imidazolo[1,2-a]azepin-5-yl}acetic acid] | ≥ 4.52 |
| O=C(O)CC1CCN(S(=O)(=O)NCCc2ccc3c(n2)NCCC3)Cc2ccccc21 (stereo not drawn) [Example 45, 2-(2-(((2-(1,2,3,4-tetrahydropyridino(2,3-b)pyridin-7-yl)ethyl)amino)sulfonyl)-1H,3H,4H,5H-benzo[e]azain-5-yl)acetic acid] | ≥ 4.52 |
| O=C(O)CC1CCN(C(=O)NCCCCNc2ncccn2)Cc2ccccc21 (stereo not drawn) [Example 10, 2-(2-(N-(4-(pyrimidin-2-ylamino)but-1-yl)carbamoyl)-1H,3H,4H,5H-benzo[e]azapin-5-yl)acetic acid] | ≥ 4.52 |
| CN(CCCNc1ccccn1)C(=O)c1cn2c(n1)Cc1ccccc1C(CC(=O)O)C2 (stereo not drawn) [Example 67, 2-(2-{N-methyl-N-[3-(2-pyridylamino)propyl]carbamoyl}-4H,5H,10H-benzo[d]imidazolo[1,2-a]azepin-5-yl)acetic acid] | ≥ 4.52 |
| O=C(O)CC1CCN(C(=O)NCCCc2ccc3c(n2)NCCC3)Cc2cc(Br)ccc21 (stereo not drawn) [Example 79, 2-{8-Bromo-2-[N-(3-(1,2,3,4-tetrahydropyridino[2,3-b]pyridin-7-yl)propyl)carbamoyl]-1H,3H,4H,5H-benzo[e]azepin-5-yl}acetic acid] | ≥ 4.52 |
